According to the supplement of paper PMC8882468:
± gives the standard deviation of the averaged measurements.

Legend:
Assay in all cases: CTG-3D luminescence at 96 h relative to day-0 seeding control (ratio to day 0); higher = more growth / less cytotoxicity; PDxO 3D drug screen, 96 h, CTG-3D normalised to day-0 seeding control.
HCI-001 = test system: HCI-001 (organoid from a triple-negative breast cancer xenograft)
HCI-002 = test system: HCI-002 (organoid from a triple-negative breast cancer xenograft)
HCI-017.E2 = test system: HCI-017.E2 (organoid from an ER-positive breast cancer xenograft)
HCI-023 = test system: HCI-023 (organoid from a triple-negative breast cancer xenograft)
MDA-MB-231 = test system: MDA-MB-231

COc1cc2c(Oc3ccc4[nH]c(C)cc4c3F)ncnc2cc1OCCCN1CCCC1 [cediranib]
CTG-3D luminescence at 96 h
Settings	12.5 pM	0.00025 µM	0.005 µM	0.1 µM	1 µM	10 µM	100 µM	625 fM
HCI-001, days in culture: 240	1.68	1.12	1.16	0.837	1.93	0.491	0.00478	1.37
HCI-001, days in culture: 260	1.84	0.917	1.79	1.4	1.81	0.0612	0.00103	1.3
HCI-001, days in culture: 269	1.74	2.02	1.64	2.09	2.09	0.00899	-0.0128	1.63
HCI-001, days in culture: 327	1.52	1.34	1.78	1.71	1.48	0.433	0.00365	1.84
HCI-001, days in culture: 346	1.6	1.18	1.25	1.32	1.41	0.639	0.00677	1.33
HCI-001, days in culture: 364	1.33	1.06	1.55	1.18	1.23	0.264	0.00077	1.44
HCI-002, days in culture: 62	2.64	2.39	2.84	2.46	2.52	0.0315	-0.00243	2.92
HCI-002, days in culture: 82	2.68	2.82	2.11	2.52	2.64	0.0265	0.00109	3.14
HCI-002, days in culture: 91	4.4	3.53	3.54	4.14	3.86	0.0389	-0.00511	4.42
HCI-002, days in culture: 191	2.49	2.65	2.32	2.43	2.47	0.0249	0.000973	2.52
HCI-002, days in culture: 209	2.4	2.26	1.95	1.95	1.93	0.0194	-0.000945	2.14
HCI-002, days in culture: 227	5.77	5.66	5.43	6.23	4.99	-0.101	-0.211	5.65
HCI-017.E2, days in culture: 85	2.93	3.39	2.44	2.78	2.18	2.05	0.00763	2.35
HCI-023, days in culture: 111	1.46	1.23	1.27	1.19	0.911	0.0116	-0.00068	1.41
HCI-023, days in culture: 128	1.2 ± 0.11	1.51 ± 0.53	1.06 ± 0.084	1.52 ± 0.15	0.96 ± 0.19	0.0129 ± 0.002	-0.00109 ± 0.00021	1.48 ± 0.27

CTG-3D luminescence at 96 h
Settings	12.5 pM	0.00025 µM	0.005 µM	0.1 µM	1 µM	10 µM	100 µM	625 fM
HCI-017.E2	1.74 ± 0.048	2.27 ± 0.082	2.12 ± 0.093	2.09 ± 0.069	1.751 ± 0.012	1.81 ± 0.18	0.00813 ± 0.002	2.35 ± 0.29
MDA-MB-231	4.34 ± 1.3	4.3 ± 1.4	4.48 ± 1.5	4.29 ± 1.4	4.44 ± 1.6	1.46 ± 0.69	0.0107 ± 0.0057	4.45 ± 1.4

CNC(=O)c1cccc(-c2ccc3c(N4CCOC[C@@H]4C)nc(N4CCOC[C@@H]4C)nc3n2)c1 [vistusertib]
CTG-3D luminescence at 96 h
Settings	12.5 pM	0.00025 µM	0.005 µM	0.1 µM	1 µM	10 µM	100 µM	625 fM
HCI-001, days in culture: 240	1.6	1.12	0.733	0.68	0.589	0.404	0.27	1.82
HCI-001, days in culture: 260	2.82	1.1	1.62	1.31	0.501	0.89	0.406	1.23
HCI-001, days in culture: 269	1.63	1.62	1.55	1.03	0.524	0.533	0.378	1.6
HCI-001, days in culture: 327	1.63	1.59	1.68	1.5	1.09	0.485	0.721	1.93
HCI-001, days in culture: 346	1.29	1.31	1.14	0.926	0.641	0.549	0.566	1.28
HCI-001, days in culture: 364	1.51	1.3	1.38	0.795	0.495	0.606	0.601	1.78
HCI-002, days in culture: 62	2.66	2.61	3.41	2.32	1.07	0.702	0.277	2.99
HCI-002, days in culture: 82	3.06	2.8	2.5	2.33	1.07	0.582	0.259	2.63
HCI-002, days in culture: 91	3.62	3.61	3.38	2.8	1.19	0.884	0.482	3.86
HCI-002, days in culture: 191	2.7	2.8	3.06	2.32	1.41	0.774	0.426	2.78
HCI-002, days in culture: 209	2.32	2.49	2.32	2.03	0.917	0.345	0.219	2.62
HCI-002, days in culture: 227	5.65	5.55	5.27	3.89	1.39	1.12	0.394	5.47
HCI-017.E2, days in culture: 85	3.03	2.04	2.83	1.99	0.732	0.76	0.421	2.95
HCI-023, days in culture: 111	1.41	1.27	1.29	1.09	0.468	0.406	0.242	1.5
HCI-023, days in culture: 128	1.83 ± 0.19	1.59 ± 0.24	1.44 ± 0.4	1.27 ± 0.088	0.78 ± 0.029	0.864 ± 0.023	0.541 ± 0.19	1.7 ± 0.29

CTG-3D luminescence at 96 h
Settings	12.5 pM	0.00025 µM	0.005 µM	0.1 µM	1 µM	10 µM	100 µM	625 fM
HCI-017.E2	1.6 ± 0.21	2.166 ± 0.018	1.94 ± 0.41	1.38 ± 0.21	0.698 ± 0.14	0.585 ± 0.11	0.418 ± 0.13	2.18 ± 0.067
MDA-MB-231	4.58 ± 1.4	4.53 ± 1.6	4.66 ± 1.6	4.35 ± 1.2	3.31 ± 0.91	2.7 ± 0.56	1.9 ± 0.39	4.64 ± 1.4
